Data from ChEMBL document CHEMBL1142200, “Efficacy of delayed treatment with ST-246 given orally against systemic orthopoxvirus infections in mice” (Antimicrob Agents Chemother, 2007).
The source made the active and inactive calls. The calls are words filed in the database; no cut-off is given here.

How the values were obtained:
Ectromelia virus [1] = test: Reduction of Ectromelia virus replication in BALB/c mouse trachea at 100 mg/kg, po once daily after 4 days; type: functional, organism-based; set-up: dose 100 mg/kg
Mus musculus [2] = test: Effect on mortality of BALB/c mouse inoculated with Cowpox virus BR at 100 mg/kg after 4 hrs of viral infection, po once daily for 5 days relative to control; type: functional
[3] = Selectivity index, ratio of CC50 for HFF cells to EC50 for Vaccinia virus WR infected HFF cells; type: functional
Mus musculus [4] = test: Effect on mortality of BALB/c mouse inoculated with Cowpox virus at 10 mg/kg after 24 hrs of viral infection, po once daily for 14 days relative to control; type: functional
Mus musculus [5] = test: Effect on mortality of BALB/c mouse inoculated with Vaccinia virus WR at 100 mg/kg after 4 hrs of viral infection, po once daily for 10 days relative to control; type: functional
Mus musculus [6] = test: Effect on mortality of BALB/c mouse inoculated with Vaccinia virus WR at 100 mg/kg after 24 hrs of viral infection, po once daily for 10 days relative to control; type: functional
Ectromelia virus [7] = test: Reduction of Ectromelia virus replication in BALB/c mouse spleen at 100 mg/kg, po once daily after 4 days; type: functional, organism-based; set-up: dose 100 mg/kg
Vaccinia virus [8] = test: Reduction of Vaccinia virus WR replication in BALB/c mouse spleen at 50 mg/kg after 24 hrs of viral infection, po for 9 days; type: functional, organism-based; set-up: dose 50 mg/kg; settings: Orthopoxvirus vaccinia
Ectromelia virus [9] = test: Reduction of Ectromelia virus replication in BALB/c mouse liver at 100 mg/kg, po once daily after 8 days; type: functional, organism-based; set-up: dose 100 mg/kg
Mus musculus [10] = test: Effect on mortality of BALB/c mouse inoculated with Cowpox virus at 100 mg/kg after 48 hrs of viral infection, po once daily for 14 days relative to control; type: functional
Ectromelia virus [11] = test: Reduction of Ectromelia virus replication in BALB/c mouse spleen at 100 mg/kg, po once daily after 14 days; type: functional, organism-based; set-up: dose 100 mg/kg
Mus musculus [12] = test: Effect on mortality of BALB/c mouse inoculated with Cowpox virus BR at 100 mg/kg after 24 hrs of viral infection, po once daily for 5 days relative to control; type: functional
Mus musculus [13] = test: Effect on mortality of BALB/c mouse inoculated with Cowpox virus at 30 mg/kg after 72 hrs of viral infection, po once daily for 14 days relative to control; type: functional
Mus musculus [14] = test: Effect on mortality of BALB/c mouse inoculated with Cowpox virus BR at 100 mg/kg after 24 hrs of viral infection, po once daily for 14 days relative to control; type: functional
Ectromelia virus [15] = test: Reduction of Ectromelia virus replication in BALB/c mouse esophagus at 100 mg/kg, po once daily after 4 days; type: functional, organism-based; set-up: dose 100 mg/kg
Vaccinia virus [16] = test: Reduction of Vaccinia virus WR replication in BALB/c mouse lung at 50 mg/kg after 24 hrs of viral infection, po for 9 days; type: functional, organism-based; set-up: dose 50 mg/kg; settings: Orthopoxvirus vaccinia
Ectromelia virus [17] = test: Reduction of Ectromelia virus replication in BALB/c mouse esophagus at 100 mg/kg, po once daily after 14 days; type: functional, organism-based; set-up: dose 100 mg/kg
Ectromelia virus [18] = test: Reduction of Ectromelia virus replication in BALB/c mouse liver at 100 mg/kg, po once daily after 4 days; type: functional, organism-based; set-up: dose 100 mg/kg
Mus musculus [19] = test: Effect on mortality of BALB/c mouse inoculated with Vaccinia virus WR at 100 mg/kg after 24 hrs of viral infection, po once daily for 14 days relative to control; type: functional
Ectromelia virus [20] = test: Reduction of Ectromelia virus replication in BALB/c mouse nasal wash at 100 mg/kg, po once daily after 8 days; type: functional, organism-based; set-up: dose 100 mg/kg
Ectromelia virus [21] = test: Reduction of Ectromelia virus replication in BALB/c mouse nasal wash at 100 mg/kg, po once daily after 14 days; type: functional, organism-based; set-up: dose 100 mg/kg
Mus musculus [22] = test: Effect on mortality of BALB/c mouse inoculated with Cowpox virus BR at 100 mg/kg after 4 hrs of viral infection, po once daily for 10 days relative to control; type: functional
Mus musculus [23] = test: Effect on mortality of A/NCr mouse inoculated with 41 PFU ectromelia virus at 100 mg/kg after 24 hrs of viral infection, po twice daily for 14 days; type: functional
Mus musculus [24] = test: Effect on mortality of BALB/c mouse inoculated with Cowpox virus BR at 100 mg/kg after 24 hrs of viral infection, po once daily for 7 days relative to control; type: functional
Ectromelia virus [25] = test: Reduction of Ectromelia virus replication in BALB/c mouse liver at 100 mg/kg, po once daily after 6 days; type: functional, organism-based; set-up: dose 100 mg/kg
Mus musculus [26] = test: Effect on mortality of A/NCr mouse inoculated with 4.1 PFU ectromelia virus at 100 mg/kg after 4 hrs of viral infection, po twice daily for 14 days; type: functional
Mus musculus [27] = test: Effect on mortality of BALB/c mouse inoculated with Vaccinia virus WR at 100 mg/kg after 4 hrs of viral infection, po once daily for 7 days relative to control; type: functional
Cowpox virus = test: Reduction of Cowpox virus BR replication in BALB/c mouse liver at 50 mg/kg after 24 hrs of viral infection, po for 9 days; type: functional, organism-based; set-up: dose 50 mg/kg
Ectromelia virus [28] = test: Reduction of Ectromelia virus replication in BALB/c mouse spleen at 100 mg/kg, po once daily after 8 days; type: functional, organism-based; set-up: dose 100 mg/kg
Ectromelia virus [29] = test: Reduction of Ectromelia virus replication in BALB/c mouse nasal wash at 100 mg/kg, po once daily after 6 days; type: functional, organism-based; set-up: dose 100 mg/kg
Mus musculus [30] = test: Effect on mortality of BALB/c mouse inoculated with Cowpox virus BR at 100 mg/kg after 4 hrs of viral infection, po once daily for 14 days relative to control; type: functional

With `O=C(NN1C(=O)[C@@H]2[C@@H]3C=C[C@@H]([C@H]4C[C@@H]34)[C@@H]2C1=O)c1ccc(C(F)(F)F)cc1` [TECOVIRIMAT] the Activity (Ectromelia virus [1]) was “Active”, the Activity (Mus musculus [2]) was 87% and the “Ratio CC50/EC50” value [3] was >1000. The Activity (Mus musculus [4]) was 73%, the Activity (Mus musculus [5]) was 33% and the Activity (Mus musculus [6]) was 0%. The Activity (Ectromelia virus [7]) was “Active”, the Activity (Vaccinia virus [8]) was “Active” and the Activity (Ectromelia virus [9]) was “Active”. For the same compound, the Activity (Mus musculus [10]) was 7%, the Activity (Ectromelia virus [11]) was “Active” and the Activity (Mus musculus [12]) was 73%. The Activity (Mus musculus [13]) was 40%, the Activity (Mus musculus [14]) was 0% and the Activity (Ectromelia virus [15]) was “Active”. For the same compound, the Activity (Vaccinia virus [16]) was “Active”, the Activity (Ectromelia virus [17]) was “Active” and the Activity (Ectromelia virus [18]) was “Active”. The Activity (Mus musculus [19]) was 7%, the Activity (Ectromelia virus [20]) was “inactive” and the Activity (Ectromelia virus [21]) was “Active”. For the same compound, the Activity (Mus musculus [22]) was 27%, the Activity (Mus musculus [23]) was 0% and the Activity (Mus musculus [24]) was 40%. For the same compound, the Activity (Ectromelia virus [25]) was “Active”, the Activity (Mus musculus [26]) was 0% and the Activity (Mus musculus [27]) was 20%. For the same compound, the Activity (Cowpox virus) was “Active”, the Activity (Ectromelia virus [28]) was “Active” and the Activity (Ectromelia virus [29]) was “inactive”. It also gave an Activity (Mus musculus [30]) of 7%.
